“And” between values parts separate entries of the source, which are not always exact repeats. Equal entries are not always repeated.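 In this assay, cells in 96-well plates receive the compound at five concentrations for 48 hours. Endpoints are linearly interpolated between the surrounding concentrations. Abbreviation: GI50, concentration required for 50% inhibition of growth. TGI: concentration producing complete growth inhibition.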

One assay has as its system HT29 colon. The assay can be described thus: NCI tumour cell line growth inhibition, 48 h.
`C#CCNC(=O)NC(CCCNC(=O)OCc1ccccc1)C(=O)OCc1ccccc1` (stereo not drawn): the TGI is more than 100 µM.
On the same count and under the same terms, in the case of `O=c1[nH]c2ccccc2cc1C(Cl)=C(Cl)Cl` it was more than 100 µM.
In turn, `O=[N+]([O-])[C@@H]1C2C=CC(C2)[C@H]1Cl` (stereo partly drawn) displayed a TGI of more than 100 µM.
Regarding `CCc1c2c(nc3cc4c(cc13)OCO4)-c1cc3c(c(=O)n1C2)COC(=O)[C@]3(O)CC`, the GI50 is 0.0537 µM and the TGI was more than 100 µM.
`COC(=O)C(C#N)=C1c2ccccc2Oc2ccccc21`: the TGI was more than 100 µM.
On the same count and under the same terms, the figure for `N#CC1(c2nc3ccccc3o2)C(=O)C(=O)N(C2C3CC4CC(C3)CC2C4)C(=O)C1=O` (stereo not drawn) is more than 100 µM; for `O=C1NC(c2ccc(O)cc2)C2CCC1C2` (stereo not drawn) it is more than 100 µM.
Compound `CCOC(=O)C1(CC)CCCCC(=O)N1` (stereo not drawn) showed a TGI of more than 100 µM.
On the same count and under the same terms, the figure for `C=CC1=CSNN1` is more than 100 µM; for `O=C(C#Cc1c[nH]c(=O)[nH]c1=O)c1ccccc1Cl` it is 96.9 µM.
On to `COc1ccc(/C=C/C=C(/C#N)C(N)=S)cc1`, for which the GI50 was 26 µM and the TGI was more than 100 µM.
For `COc1ccc(-c2cc(-c3cc(Cl)ccc3Cl)nc3[nH]c(-c4cc(F)c(Cl)cc4Cl)cc(=O)c23)cc1`, in that order: 39.2 µM and more than 100 µM.
`CC(=O)OC1=C2CC3(C)OC(=O)CC(C)(C)C3=CC=C2C=C(C(C)C)C1=O` (stereo not drawn) came in with a TGI of 2.73 µM.
Regarding `CCCCCCCCCCCCCCCC(=O)NCC(COP(=O)([O-])OCC[N+](C)(C)C)OCC` (stereo not drawn), the TGI amounted to 16.3 µM.
Take `O=c1cc(-c2cccc(F)c2)[nH]c2cc3c(cc12)OCO3`: the GI50 is 0.69 µM and 0.172 µM; the TGI was 3.23 µM and 0.705 µM.
Turning to `COC(=O)C1OC(O[C@H]2CCC3(C)C(CCC4(C)C3CC=C3C5CC(C)(C)CCC5(C(=O)O)CC[C@]34C)C2(C)C)C(O)C(OC2OC(CO)C(O)C(O)C2O)C1O` (stereo partly drawn), the GI50 is 12.4 µM and the TGI was more than 33.3 µM.
As for `O=C1NC2(CCCC2)C(=O)C12CCCC2`, the TGI was more than 100 µM.
On to `O=C1CCCN(c2ccccc2)N1`, for which the TGI is more than 100 µM.
Same read-out and setting: in the case of `CN(C)/C(=N/C(=S)Nc1ccccc1)SCc1ccccc1` it was more than 100 µM; in that of `CCOC(=O)C1=C(C)Nc2ccccc2S1`, more than 100 µM; in that of `CCOC(=O)CC1=Nc2ccccc2SC1`, more than 100 µM.
`C=CCSC[C@H](NC(=O)COc1ccccc1)C(=O)NC(C(=O)OCc1ccc([N+](=O)[O-])cc1)=C(C)C`: the TGI was more than 100 µM.

The next assay relates to NCI-H23 lung. The assay can be described thus: NCI tumour cell line growth inhibition, 48 h.
`CCOc1ccc(NC(=O)CC2Sc3ccccc3NC2=O)cc1` (stereo not drawn): the TGI is more than 100 µM.
On the same count and under the same terms, in the case of `Cn1cc(NC(=O)c2cc(NC(=O)CCCCCCCCCCC(=O)Nc3cc(C(=O)Nc4cc(C(=O)NCCC(=N)N)n(C)c4)n(C)c3)cn2C)cc1C(=O)NCCC(=N)N` it was more than 100 µM.
As for `C1COCCN1.C1COCCN1.N.N.[Cl-].[Pt+2]`, the GI50 was more than 100 µM and the TGI is more than 100 µM.
Take `Cc1ccccc1C(C#N)C(=O)C(=O)Nc1nc([N+](=O)[O-])cs1` (stereo not drawn): the TGI is more than 100 µM.
In turn, `COC(=O)C(c1[nH]nc2ccccc12)C(C(=O)OC)c1[nH]nc2ccccc12` (stereo not drawn) yielded a TGI of more than 100 µM.
`C#CCNC(=O)NC(CCCNC(=O)OCc1ccccc1)C(=O)OCc1ccccc1` (stereo not drawn): the TGI is more than 100 µM.
With `COc1ccc2cc1Oc1ccc(cc1)C[C@H]1c3cc(c(OC)cc3CCN1C)Oc1c(OC)c(OC)cc3c1[C@H](C2)N(C)CC3`, the TGI is 20.5 µM and 27.4 µM and > 100 µM.
Same read-out and setting: in the case of `O=c1[nH]c2ccccc2cc1C(Cl)=C(Cl)Cl` it was more than 100 µM; in that of `O=[N+]([O-])[C@@H]1C2C=CC(C2)[C@H]1Cl` (stereo partly drawn), more than 100 µM.
For the compound `CCc1c2c(nc3cc4c(cc13)OCO4)-c1cc3c(c(=O)n1C2)COC(=O)[C@]3(O)CC`, the GI50 was 0.00263 µM and the TGI is 1.08 µM.
Turning to `COC(=O)C(C#N)=C1c2ccccc2Oc2ccccc21`, the TGI was more than 100 µM.
On the same count and under the same terms, the figure for `N#CC1(c2nc3ccccc3o2)C(=O)C(=O)N(C2C3CC4CC(C3)CC2C4)C(=O)C1=O` (stereo not drawn) is more than 100 µM.
On the same count and under the same terms, in the case of `O=C1NC(c2ccc(O)cc2)C2CCC1C2` (stereo not drawn) it was more than 100 µM.
Still for that read-out and setting: in the case of `CCOC(=O)C1(CC)CCCCC(=O)N1` (stereo not drawn) it was more than 100 µM.
Take `C=CC1=CSNN1`: the TGI was more than 100 µM.
Still for that read-out and setting: the figure for `O=C(C#Cc1c[nH]c(=O)[nH]c1=O)c1ccccc1Cl` is 32.3 µM.
Turning to `COc1ccc(/C=C/C=C(/C#N)C(N)=S)cc1`, the GI50 was 28.7 µM and the TGI was more than 100 µM.
Take `COc1ccc(-c2cc(-c3cc(Cl)ccc3Cl)nc3[nH]c(-c4cc(F)c(Cl)cc4Cl)cc(=O)c23)cc1`: the GI50 was 14.7 µM and the TGI came out at 55.8 µM.
In the case of `CC(=O)OC1=C2CC3(C)OC(=O)CC(C)(C)C3=CC=C2C=C(C(C)C)C1=O` (stereo not drawn), the TGI is 1.47 µM.
The same measure, in the same setting: in the case of `CCCCCCCCCCCCCCCC(=O)NCC(COP(=O)([O-])OCC[N+](C)(C)C)OCC` (stereo not drawn) it was 39.3 µM; in that of `O=c1cc(-c2cccc(F)c2)[nH]c2cc3c(cc12)OCO3`, 2.43 µM and 2.83 µM.
As to `COC(=O)C1OC(O[C@H]2CCC3(C)C(CCC4(C)C3CC=C3C5CC(C)(C)CCC5(C(=O)O)CC[C@]34C)C2(C)C)C(O)C(OC2OC(CO)C(O)C(O)C2O)C1O` (stereo partly drawn), the GI50 is 6.46 µM and the TGI came out at 11.9 µM.
In turn, `O=C1NC2(CCCC2)C(=O)C12CCCC2` had a TGI of more than 100 µM.
The same measure, in the same setting: in the case of `CN(C)/C(=N/C(=S)Nc1ccccc1)SCc1ccccc1` it was more than 100 µM; in that of `CCOC(=O)C1=C(C)Nc2ccccc2S1`, more than 100 µM.
The same measure, in the same setting: the figure for `CCOC(=O)CC1=Nc2ccccc2SC1` is more than 100 µM.

The test system of a further assay is NCI/ADR-RES ovarian. The assay can be described thus: NCI tumour cell line growth inhibition, 48 h.
For the compound `O=C(c1ccc2ccccc2c1)c1c(C(F)(F)F)n([O-])c2cc(Cl)c(Cl)cc2[n+]1=O`, the GI50 is 1.8 µM and the TGI was 3.95 µM.
As to `COc1ccc(-c2cc(-c3cc(Cl)ccc3Cl)nc3[nH]c(-c4cc(F)c(Cl)cc4Cl)cc(=O)c23)cc1`, the GI50 was 4.95 µM and the TGI turned out to be 23.2 µM.
Turning to `O=c1cc(-c2cccc(F)c2)[nH]c2cc3c(cc12)OCO3`, the TGI was 0.0497 µM.
